Assay results taken from patent publication US9221826B2, “Pyrrolopyridazine JAK3 inhibitors and their use for the treatment of inflammatory and autoimmune diseases” (Bristol-Myers Squibb Company, priority 2011, dated 2015).

Tests used:
Assay type in all cases: biochemical
GST-JAK1 enzyme = GST-JAK1 enzyme (Homo sapiens, UniProt P23458); experiment: JAK1 Kinase Assay Protocol; conditions: Caliper LabChip assay, ATP 100 μM, fluoresceinated peptide; read-out: LLE_JAK1 (IC50)
Procedure: The assay reactions were performed in U-bottom 384-well plates. The final assay volume was 30 μl prepared from 15 μl additions of enzyme and substrates (fluoresceinated peptide and ATP) and test compounds in assay buffer (20 mM HEPES pH 7.4, 10 mM MgCl2, 25 mM beta-glycerol phosphate, 0.015% Brij35 and 4 mM DTT). The reaction was initiated by the combination of GST-JAK1 enzyme with substrates and test compounds. The reactions were incubated at room temperature for 3 hours and terminated by adding 60 μl of 35 mM EDTA to each sample. Each reaction mixture was analyzed on the Caliper LabChip 3000 (Caliper, Hopkinton, Mass.) by electrophoretic separation of the fluorescent substrate and phosphorylated product. […] The final concentration of reagents in the assays was: ATP, 100 μM; fluoresceinated peptide, 1.5 μM; GST-JAK1, 12.5 nM; and DMSO, 1.6%. […] Compounds were dissolved at 10 mM in dimethylsulfoxide (DMSO) and evaluated at eleven concentrations. IC50 values were derived by non-linear regression analysis.

GST-JAK3 enzyme = biological target: T1, GST-JAK3 enzyme (Homo sapiens, UniProt P52333); experiment: JAK3 Kinase Assay Protocol (Caliper); conditions: Caliper LabChip assay, ATP 8 μM, fluoresceinated peptide; read-out: LLE_JAK3_CAL (IC50)
T1 sequence (P52333 1-1124): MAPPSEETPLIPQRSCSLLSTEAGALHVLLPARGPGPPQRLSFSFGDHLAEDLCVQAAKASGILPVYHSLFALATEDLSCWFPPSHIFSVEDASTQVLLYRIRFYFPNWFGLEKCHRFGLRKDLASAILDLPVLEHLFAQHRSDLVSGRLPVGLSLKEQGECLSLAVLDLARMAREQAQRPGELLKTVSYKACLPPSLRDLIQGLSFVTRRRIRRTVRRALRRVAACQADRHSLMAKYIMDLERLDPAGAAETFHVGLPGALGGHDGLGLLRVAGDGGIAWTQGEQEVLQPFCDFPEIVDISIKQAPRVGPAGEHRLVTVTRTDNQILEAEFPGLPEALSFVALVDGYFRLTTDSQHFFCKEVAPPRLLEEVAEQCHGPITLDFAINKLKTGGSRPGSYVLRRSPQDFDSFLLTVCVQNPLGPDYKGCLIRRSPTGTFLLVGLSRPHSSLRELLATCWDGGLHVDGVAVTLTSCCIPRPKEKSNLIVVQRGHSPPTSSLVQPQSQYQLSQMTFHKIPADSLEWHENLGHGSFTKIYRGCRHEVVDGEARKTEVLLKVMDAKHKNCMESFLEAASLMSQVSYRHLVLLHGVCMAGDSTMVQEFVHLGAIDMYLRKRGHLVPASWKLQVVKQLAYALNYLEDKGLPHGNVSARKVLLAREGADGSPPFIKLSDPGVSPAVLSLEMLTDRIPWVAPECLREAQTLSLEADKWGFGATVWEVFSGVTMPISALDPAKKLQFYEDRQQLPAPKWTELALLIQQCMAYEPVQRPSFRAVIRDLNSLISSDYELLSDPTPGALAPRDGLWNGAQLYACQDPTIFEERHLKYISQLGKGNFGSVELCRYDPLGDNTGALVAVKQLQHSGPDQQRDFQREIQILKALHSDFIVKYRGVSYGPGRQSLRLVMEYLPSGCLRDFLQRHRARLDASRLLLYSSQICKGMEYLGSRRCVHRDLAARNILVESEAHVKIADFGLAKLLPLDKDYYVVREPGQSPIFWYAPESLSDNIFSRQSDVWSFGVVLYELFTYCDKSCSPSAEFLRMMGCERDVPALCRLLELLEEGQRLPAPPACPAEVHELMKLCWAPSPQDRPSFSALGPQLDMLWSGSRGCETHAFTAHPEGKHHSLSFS
Procedure: The assay reactions were performed in U-bottom 384-well plates. […] The reaction was initiated by the combination of GST-JAK3 enzyme with substrates and test compounds. The reactions were incubated at room temperature for 3 hours and terminated by adding 60 μl of 35 mM EDTA to each sample. Each reaction mixture was analyzed on the Caliper LabChip 3000 (Caliper, Hopkinton, Mass.) by electrophoretic separation of the fluorescent substrate and phosphorylated product. […] Compounds were dissolved at 10 mM in dimethylsulfoxide (DMSO) and evaluated at eleven concentrations. IC50 values were derived by non-linear regression analysis.

JAK3 enzyme = biological target: T2, JAK3 enzyme (Homo sapiens, UniProt P52333); experiment: JAK3 Kinase Assay Protocol (Filter); conditions: 33P γ-ATP, 8 μM ATP, CSKtide substrate, read-out: LLE_JAK3_FB (IC50)
T2 sequence (P52333 1-1124): T1 sequence (P52333 1-1124)
Procedure: Kinase reactions consisted of 5 ng of JAK3 enzyme, 30 uM CSKtide substrate, 0.2 μCi ^33P γ-ATP, 8 μM ATP in 30 μl kinase buffer (50 mM Hepes, pH 8.0, 10 mM MgCl2, 1 mM EGTA, 2 mM DTT). Reactions were incubated for 30 minutes at room temperature and stopped by the addition of cold trichloroacetic acid (TCA) to a final concentration of 15%. TCA precipitates were collected onto 384 well phosphocellulose filters (Millipore) using a Platemate to transfer the reaction mixture, washed on an EMBLA plate washer and the filters were quantitated using a TopCount 384-well liquid scintillation counter. […] Compounds were dissolved at 10 mM in dimethylsulfoxide (DMSO) and evaluated at six concentrations, each in triplicate. The final concentration of DMSO in the assay equaled 2%. IC50 values were derived by non-linear regression analysis.

GST-JAK1 enzyme, sequence (P23458 whole entry): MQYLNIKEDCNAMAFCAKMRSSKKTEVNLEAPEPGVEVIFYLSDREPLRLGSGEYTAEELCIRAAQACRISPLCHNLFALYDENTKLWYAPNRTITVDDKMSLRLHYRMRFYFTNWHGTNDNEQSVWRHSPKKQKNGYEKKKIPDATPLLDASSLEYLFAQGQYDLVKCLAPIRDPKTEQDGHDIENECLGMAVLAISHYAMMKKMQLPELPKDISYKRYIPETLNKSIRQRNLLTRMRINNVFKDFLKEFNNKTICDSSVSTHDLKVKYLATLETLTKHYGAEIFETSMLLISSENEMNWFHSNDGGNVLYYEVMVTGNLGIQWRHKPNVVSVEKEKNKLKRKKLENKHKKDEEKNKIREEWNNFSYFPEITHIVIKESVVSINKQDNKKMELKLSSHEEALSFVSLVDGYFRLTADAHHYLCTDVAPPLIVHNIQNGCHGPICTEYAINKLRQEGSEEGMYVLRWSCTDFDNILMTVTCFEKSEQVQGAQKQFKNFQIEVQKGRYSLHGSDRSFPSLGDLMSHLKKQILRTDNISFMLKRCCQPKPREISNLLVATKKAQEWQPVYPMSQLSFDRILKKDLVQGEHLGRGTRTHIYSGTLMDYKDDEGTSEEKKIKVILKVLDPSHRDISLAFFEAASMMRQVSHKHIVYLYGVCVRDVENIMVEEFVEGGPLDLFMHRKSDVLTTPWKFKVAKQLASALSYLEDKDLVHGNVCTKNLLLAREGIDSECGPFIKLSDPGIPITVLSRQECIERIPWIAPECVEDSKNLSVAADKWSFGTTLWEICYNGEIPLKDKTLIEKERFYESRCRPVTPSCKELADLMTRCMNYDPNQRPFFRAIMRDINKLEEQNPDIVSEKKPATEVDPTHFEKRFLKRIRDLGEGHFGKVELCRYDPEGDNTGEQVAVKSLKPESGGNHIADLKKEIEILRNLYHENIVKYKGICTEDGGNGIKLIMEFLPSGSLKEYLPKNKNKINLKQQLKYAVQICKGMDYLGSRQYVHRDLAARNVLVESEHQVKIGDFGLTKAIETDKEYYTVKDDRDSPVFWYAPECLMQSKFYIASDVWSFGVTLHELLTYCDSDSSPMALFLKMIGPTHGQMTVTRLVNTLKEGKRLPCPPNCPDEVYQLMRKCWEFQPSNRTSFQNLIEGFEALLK

Row | IC50 (GST-JAK1 enzyme) [nM] | IC50 (GST-JAK3 enzyme) [nM] | IC50 (JAK3 enzyme) [nM] | SMILES
1 | 0.4 | 0.9 | – | C[C@@H](Nc1c(C(N)=O)cnn2cc(-c3ccc(C#N)cc3)cc12)C(C)(C)c1nc(C(N)=O)co1 [Example 222]
2 | 8.8 | 2.5 | 1.2 | C[C@@H](Nc1c(C(N)=O)cnn2cc(-c3ccn[nH]3)cc12)C(C)(C)F [Example 43]
3 | 110 | 5.4 | 7.9 | C[C@@H](Nc1c(C(N)=O)cnn2cc(-c3cnc(NCCN(C)C)nc3)cc12)C1CC1 [Example 205]
4 | 141 | 22.4 | 21.6 | C[C@@H](Nc1c(C(N)=O)cnn2cc(N3CCCCS3(=O)=O)cc12)C(C)(C)C [Example 17]
5 | 106 | 96.4 | 49.2 | CC(Nc1c(C(N)=O)cnn2cc(-c3ccncc3)cc12)c1cc(F)ccc1F (racemic) [Example 181, (+/−)-4-((1-(2,5-difluorophenyl)ethyl)amino)-6-(4-pyridinyl)pyrrolo[1,2-b]pyridazine-3-carboxamide]
6 | 72.3 | 40.6 | 88 | CNc1c(C(N)=O)cnn2cc(-c3cccc(CC#N)c3)cc12 [Example 191, 6-(3-(cyanomethyl)phenyl)-4-(methylamino)pyrrolo[1,2-b]pyridazine-3-carboxamide]
7 | 5.2 | 1.4 | 0.9 | C[C@@H](Nc1c(C(N)=O)cnn2cc(-c3cccc(C#N)c3)cc12)C(C)(C)F [Example 53, (R)-6-(3-cyanophenyl)-4-(3-fluoro-3-methylbutan-2-ylamino)pyrrolo[1,2-b]pyridazine-3-carboxamide]
8 | 570 | 105 | 109 | CC(C)[C@H]1COC(=O)N1c1cc2c(N[C@H](C)C(C)(C)C)c(C(N)=O)cnn2c1 [Example 18]
9 | 4.8 | 2.2 | 1.1 | C[C@@H](Nc1c(C(N)=O)cnn2cc(-c3ccc(N)nc3)cc12)C1CC1 [Example 200]
10 | 83.1 | 4.8 | 11.3 | C[C@@H](Nc1c(C(N)=O)cnn2cc(N3CCCS3(=O)=O)cc12)C(C)(C)F [Example 131]
11 | – | 1 | 0.7 | C[C@@H](Nc1c(C(N)=O)cnn2cc(-c3cccc(CN)c3)cc12)C(C)(C)F [Example 68, 6-(3-(aminomethyl)phenyl)-4-(((1R)-2-fluoro-1,2-dimethylpropyl)amino) pyrrolo[1,2-b]pyridazine-3-carboxamide]
12 | 3 | 1.3 | 1 | C[C@@H](Nc1c(C(N)=O)cnn2cc(-c3cccc(C(O)CO)c3)cc12)C1CC1 (mixture of isomers) [Example 187, (R)-4-(1-cyclopropylethylamino)-6-(3-(1,2-dihydroxyethyl)phenyl)pyrrolo[1,2-b]-pyridazine-3-carboxamide]
13 | 402 | 223 | 178 | CC(C)Nc1c(C(N)=O)cnn2cc(-c3ccnc4ccccc34)cc12 [Example 153]
14 | 3.8 | 1.2 | 1.8 | CNC(=O)c1ccc(-c2cc3c(N[C@H](C)C4CC4)c(C(N)=O)cnn3c2)cn1 [Example 202]
15 | 3.8 | 0.6 | 18.8 | C[C@@H](Nc1c(C(N)=O)cnn2cc(-c3ccc(F)cc3)cc12)C(C)(C)F [Example 37]
16 | – | 23.8 | – | CC(C)Nc1c(C(N)=O)cnn2cc(-c3ccc4c(c3)OCO4)cc12 [Example 149]
17 | 86 | 4.7 | 5.9 | C[C@@H](Nc1c(C(N)=O)cnn2cc(N3CCN(C)C3=O)cc12)C(C)(C)C [Example 25]
18 | 34 | 2.8 | 0.7 | C[C@@H](Nc1c(C(N)=O)cnn2cc(N3CCOC3=O)cc12)C(C)(C)C [Example 22]
19 | 46.1 | 5.3 | 1.2 | C[C@@H](Nc1c(C(N)=O)cnn2cc(N3CCNC3=O)cc12)C(C)(C)C [Example 29]
20 | 260 | 66.7 | 18.6 | NC(=O)c1cnn2cc(-c3ccccc3)cc2c1N[C@H](C(N)=O)c1ccccc1 [Example 125]
21 | 100 | 1.8 | 2.3 | C[C@@H](Nc1c(C(N)=O)cnn2cc(-c3nnc(N4CCN(C)CC4)o3)cc12)C1(C)CC1 [Example 241, (R)-4-((1-(1-methylcyclopropyl)ethyl)amino)-6-(5-(4-methylpiperazin-1-yl)-1,3,4-oxadiazol-2-yl)pyrrolo[1,2-b]pyridazine-3-carboxamide]
22 | 13 | 2.1 | 1.7 | C[C@@H](Nc1c(C(N)=O)cnn2cc(-c3cnc(N)nc3)cc12)C1CC1 [Example 192, (R)-6-(2-aminopyrimidin-5-yl)-4-(1-cyclopropylethylamino)pyrrolo[1,2-b]pyridazine-3-carboxamide]
23 | 0.5 | 0.3 | – | CC[C@@H](c1nc(C(N)=O)co1)[C@@H](C)Nc1c(C(N)=O)cnn2cc(-c3ccc(OC)nc3)cc12 [Example 224, 2-((2R,3R)-2-((3-carbamoyl-6-(6-methoxypyridin-3-yl)pyrrolo[1,2-b]pyridazin-4-yl)amino)pentan-3-yl)oxazole-4-carboxamide]
24 | 2.7 | – | 1.8 | CC(Nc1c(C(N)=O)cnn2cc(-c3ccccc3)cc12)C(C)(C)C(N)=O (racemic) [Example 193, (+/−)-4-(4-amino-3,3-dimethyl-4-oxobutan-2-ylamino)-6-phenylpyrrolo[1,2-b]-pyridazine-3-carboxamide]
25 | 2200 | 880 | – | C[C@@H](O)[C@@H](COP(=O)(O)O)Nc1c(C(N)=O)cnn2cc(-c3ccccc3)cc12 [Example 240, (2R,3R)-2-((3-carbamoyl-6-phenylpyrrolo[1,2-b]pyridazin-4-yl)amino)-3-hydroxybutyl dihydrogen phosphate, disodium]
26 | 0.6 | 1.2 | – | COc1ccc(-c2cc3c(N[C@H](C)C(C)(C)c4nc(C(N)=O)co4)c(C(N)=O)cnn3c2)cc1 [Example 219]

Row | SMILES | IC50 (GST-JAK1 enzyme) [nM] | IC50 (GST-JAK3 enzyme) [nM] | IC50 (JAK3 enzyme) [nM]
27 | C[C@@H](O)[C@@H](CO)Nc1c(C(N)=O)cnn2cc(-c3ccccc3)cc12 [Example 196, 4-((2R,3R)-1,3-dihydroxybutan-2-ylamino)-6-phenylpyrrolo[1,2-b]pyridazine-3-carboxamide] | 5.8 | 3 | 1.3
